target: Recombinant human cathepsin A (Homo sapiens (Human), UniProt P10619); test: Cathepsin A inhibitory activity (cleavage of Bodipy FL-labeled bradykinin, microfluidic capillary electrophoresis); assay type: biochemical; conditions: read-out: Activity (Cathepsin A inhibitory activity, IC50)
Sequence (P10619 29-326): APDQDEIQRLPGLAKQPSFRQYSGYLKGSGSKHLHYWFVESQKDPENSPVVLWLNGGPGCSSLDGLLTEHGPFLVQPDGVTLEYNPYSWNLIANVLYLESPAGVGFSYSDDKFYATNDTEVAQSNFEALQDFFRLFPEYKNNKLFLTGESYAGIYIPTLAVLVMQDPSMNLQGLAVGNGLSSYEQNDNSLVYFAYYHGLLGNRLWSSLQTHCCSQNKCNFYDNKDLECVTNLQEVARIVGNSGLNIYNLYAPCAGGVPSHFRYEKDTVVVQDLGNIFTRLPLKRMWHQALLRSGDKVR
Sequence (P10619 327-480): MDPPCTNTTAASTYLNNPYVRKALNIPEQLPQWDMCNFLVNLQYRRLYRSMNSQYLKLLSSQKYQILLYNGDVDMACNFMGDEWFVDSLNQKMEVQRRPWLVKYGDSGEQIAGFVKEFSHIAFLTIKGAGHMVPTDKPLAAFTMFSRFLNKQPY

In the case of `O=C(O)CC(NC(=O)c1cc(-c2ccccc2)nc(N2CCCCC2)n1)c1ccccc1Cl` (stereo not shown) [compound 616, 3-(2-Chloro-phenyl)-3-[(6-phenyl-2-piperidin-1-yl-pyrimidine-4-carbonyl)-amino]-propionic acid], the IC50 is reported as 10.4 µM.

same assay, conditions: read-out: Activity (IC50, cathepsin A inhibition)

`O=C(O)C[C@H](NC(=O)c1cccc(-c2ccccc2Cl)n1)c1cccc(F)c1` [compound 587] and `O=C(O)CC(NC(=O)c1cccc(F)n1)c1ccccc1Cl` (stereo not shown) [compound 531] are within 1.5-fold of each other in IC50: 7.35 µM for the first, 7.65 µM for the second.

First: CC(C)Cc1cc(C(=O)NC(CC(=O)O)c2ccccc2Cl)nc(N)n1 (stereo not shown) [compound 557]
Second: O=C(O)CC(NC(=O)c1cccc(Cl)n1)c1ccccc1Cl (stereo not shown) [compound 540]
The IC50 of the first is 8.8-fold higher: 14 µM for the first, 1.6 µM for the second. The second is the more potent here.

same assay, conditions: read-out: Activity (IC50, cathepsin A inhibitory activity)

Going from `COc1ccc(C(=O)N[C@@H](CC(=O)O)c2ccc(C)cc2)nc1-c1ccccc1C(=O)N(C)C` [compound 228] to `COc1ccc(C(=O)N[C@@H](CC(=O)O)c2ccc(C)cc2)nc1-c1cc(C)cnc1Cl` [compound 247], the IC50 rises from 3.96 µM to 8.43 µM (2.1-fold). The first is the more potent here.

Going from `COc1cccc(C(=O)N[C@@H](CC(=O)O)c2ccccc2C)n1` [compound 31] to `COc1cccc(-c2cccc(C(=O)N[C@@H](CC(=O)O)c3ccccc3C)n2)c1` [compound 43], the IC50 falls from 4.77 µM to 2.27 µM (2.1-fold).

Going from `COc1ncc(C(=O)N[C@@H](CC(=O)O)c2ccccc2C)cc1-c1cccc(C)c1` [compound 417] to `COc1ccc(C(=O)N[C@@H](CC(=O)O)c2ccccc2F)nc1-c1cccc(C)c1` [compound 269], the IC50 falls from 4.86 µM to 1.01 µM (4.8-fold). The second is the more potent here.

First: COc1ccc(C(=O)N[C@@H](CC(=O)O)c2ccccc2Cl)nc1-c1ccc(F)c(C)c1 [compound 451]
Second: COc1ccc(C(=O)N[C@@H](CC(=O)O)c2ccccc2Cl)nc1-c1ccc(F)nc1 [compound 453]
The IC50 of the first is 1.7-fold lower: 3.79 µM for the first, 6.49 µM for the second. The first is the more potent here.

Going from `Cc1ccccc1[C@H](CC(=O)O)NC(=O)c1cncc(-c2ccccc2)c1` [compound 15] to `Cc1ccccc1[C@H](CC(=O)O)NC(=O)c1cccnc1` [compound 8], the IC50 rises from 2.16 µM to 10.4 µM (4.8-fold).

`COc1ccc(C(=O)N[C@@H](CC(=O)O)c2ccccc2F)nc1-c1cc(F)cc(F)c1` [compound 279] and `Cc1ccccc1[C@H](CC(=O)O)NC(=O)c1ccc2nc[nH]c2n1` [compound 34] are within 1.5-fold of each other in IC50: 3.85 µM for the first, 5.07 µM for the second.

`COc1cc(OC)nc(C(=O)N[C@@H](CC(=O)O)c2ccccc2C)n1` [compound 30] and `Cc1ccnc(C(=O)N[C@@H](CC(=O)O)c2ccccc2C)c1` [compound 14] are within 1.5-fold of each other in IC50: 4.21 µM for the first, 4.35 µM for the second.

same assay, conditions: read-out: Activity [μM] (IC50, cathepsin A inhibitory activity)

First: COc1ccc(-c2nc(C(=O)N[C@@H](CC(=O)O)c3ccccc3Cl)ccc2OC)cc1 [compound 335]
Second: COc1ccc(-c2nc(C(=O)N[C@@H](CC(=O)O)c3ccc(C)cc3)ccc2OC)cc1 [compound 187]
The IC50 of the first is 2.2-fold lower: 2.25 µM for the first, 4.85 µM for the second.

Going from `COc1ccc(C(=O)N[C@@H](CC(=O)O)c2ccccc2Cl)nc1-c1ccc(F)c(Cl)c1` [compound 332] to `COc1ccc(F)c(-c2nc(C(=O)N[C@@H](CC(=O)O)c3ccccc3F)ccc2OC)c1` [compound 307], the IC50 falls from 5.24 µM to 2.92 µM (1.8-fold).

`Cc1ccccc1[C@H](CC(=O)O)NC(=O)c1cccc(-c2ccc(F)cc2)n1` [compound 135] and `Cc1ccc(-c2cccc(C(=O)N[C@@H](CC(=O)O)c3ccccc3C)n2)cc1` [compound 137] are within 1.5-fold of each other in IC50: 1.18 µM for the first, 1.24 µM for the second.

Compared with `COc1ccc(C(=O)N[C@@H](CC(=O)O)c2ccccc2C)nc1-c1ccc(C(C)=O)s1` [compound 364], `COc1ccc(C(=O)N[C@@H](CC(=O)O)c2ccccc2F)nc1-c1ccc(C#N)cc1F` [compound 325] is 2.6-fold lower in IC50: 9.25 µM for the first, 3.58 µM for the second.

`Cc1ccccc1[C@H](CC(=O)O)NC(=O)c1cccc(-c2cccc(-c3ccccc3)c2)n1` [compound 147] and `Cc1ccccc1[C@H](CC(=O)O)NC(=O)c1cccc(-c2ccccc2C#N)n1` [compound 157] are within 1.5-fold of each other in IC50: 3.16 µM for the first, 2.46 µM for the second.

First: COc1ncc(C(=O)N[C@@H](CC(=O)O)c2ccccc2Cl)cc1-c1ccc(F)cc1 [compound 346]
Second: Cc1ccccc1[C@H](CC(=O)O)NC(=O)c1cccc(-c2ccc(C(=O)N(C)C)c(Cl)c2)n1 [compound 174]
The IC50 of the first is 5.2-fold higher: 8.26 µM for the first, 1.59 µM for the second. The second is the more potent here.

Reference: US9029559B2, “Substituted 3-heteroaroylamino-propionic acid derivatives and their use as pharmaceuticals” (SANOFI, priority 2011, dated 2015)
